pIC50: −log10 of the molar value. Positions of bridges follow the written chain, without caps; N, C: chain ends. Non-standard residues stand in square brackets, D forms with d. Residues, ends and D or L forms follow the SMILES beside them. *: point of attachment. hPhe(3-Cl-4-CF3) = N[C@@H](CCc1ccc(C(F)(F)F)c(Cl)c1)C(=O)O; hPhe(3-F,4-CF3) = N[C@@H](CCc1ccc(C(F)(F)F)c(F)c1)C(=O)O; NMeMet(O2) = CN[C@@H](CCS(C)(=O)=O)C(=O)O; NMeAla(cPent) = CN[C@@H](CC1CCCC1)C(=O)O; NMeGly(cPent) = CN[C@H](C(=O)O)C1CCCC1; Pro(4,4-F2) = O=C(O)[C@@H]1CC(F)(F)CN1; NMeCha = CN[C@@H](CC1CCCCC1)C(=O)O; cisHyp = O=C(O)[C@@H]1C[C@H](O)CN1; Hyp = O=C(O)[C@@H]1C[C@@H](O)CN1; NMeAhp(2) = CCCCC[C@H](NC)C(=O)O; NMeChg = CN[C@H](C(=O)O)C1CCCCC1; NMeD = CN[C@@H](CC(=O)O)C(=O)O; Benzyl(4-Cl) = Clc1ccc(C*)cc1; NMeL = CN[C@@H](CC(C)C)C(=O)O; Morpholide = C1CN(*)CCO1; Piperidide = C1CCN(*)CC1; X45 = FC(F)Oc1ccc(C*)cc1; Ac5c = NC1(C(=O)O)CCCC1; Aze = O=C(O)[C@@H]1CCN1; X30 = COc1cccc(C*)c1; Meb = Cc1ccc(C*)cc1; Sar = CNCC(=O)O
Columns and labels:
[1] = system: Human pancreatic cancer cell line AsPC-1; assay: Measurement of AsPC-1 cell growth inhibition (AsPC-1 CGI); assay type: cell-based; details: 96 h
Summary of the method: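 AsPC-1 cells in 15% FBS RPMI-1640 were exposed to test compound for 96 hours at 37° C, with CellTiter-Glo as endpoint.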

[2] = molecular target: T1, Kras and SOS1 (biotin-tagged human Kras loaded with GDP, His-tagged human SOS1) (Homo sapiens, UniProt P01116, G12D); assay: Protein-protein interaction inhibition between Kras and SOS1 (KrasGl2D-SOS PPI) using AlphaScreen; assay type: binding; details: AlphaScreen; biotin-tagged human Kras loaded with GDP, His-tagged human SOS1; read-out: KRAS G12D-SOS PPI IC50
T1 construct: made in house; host or cells: E. coli (stated for Kras only)
T1 sequence (P01116 1-188 isoform P01116-2 G12D): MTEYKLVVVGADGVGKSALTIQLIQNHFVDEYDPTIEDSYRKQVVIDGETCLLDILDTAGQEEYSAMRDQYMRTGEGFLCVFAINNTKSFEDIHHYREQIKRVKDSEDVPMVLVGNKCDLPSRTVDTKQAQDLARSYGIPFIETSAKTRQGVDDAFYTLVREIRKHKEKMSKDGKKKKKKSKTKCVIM
Summary of the method: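 Kras was produced in E. coli, purified, then loaded with GDP. It was paired via streptavidin acceptor beads with His-SOS1 held on nickel donor beads, and proximity signal at 520-620 nm was read after 680 nm illumination.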

| Structure (SMILES) | pIC50 [1] | pIC50 [2] |
| --- | --- | --- |
| CCCCC[C@H]1C(=O)N[C@@H]([C@@H](C)CC)C(=O)N[C@@H](C)C(=O)N2CC[C@H]2C(=O)N(C)[C@@H](C2CCCC2)C(=O)N(C)CC(=O)N[C@@H](CCc2ccc(C(F)(F)F)c(Cl)c2)C(=O)N2CCC[C@H]2C(=O)NC2(CCCC2)C(=O)N(C)[C@@H](C2CCCC2)C(=O)N(C)[C@H](C(=O)N2CCOCC2)CC(=O)N1C [Compound 11] ([NMeAhp(2)]IA[Aze][NMeGly(cPent)][Sar][hPhe(3-Cl-4-CF3)]P[Ac5c][NMeGly(cPent)][NMeD]-Morpholide; lactam N-11) | 7.00 to 7.30 | 8.82 |
| CC[C@H](C)[C@@H]1NC(=O)[C@H](CC(C)C)N(C)C(=O)C[C@@H](C(=O)N2CCCCC2)N(C)C(=O)[C@H](CC2CCCC2)N(C)C(=O)C2(CCCC2)NC(=O)[C@@H]2CCCN2C(=O)[C@H](CCc2ccc(C(F)(F)F)c(Cl)c2)NC(=O)CN(C)C(=O)[C@H](CC2CCCCC2)N(C)C(=O)CN(C)C(=O)CN(C)C1=O [Compound 30] ([NMeL]I[Sar][Sar][NMeCha][Sar][hPhe(3-Cl-4-CF3)]P[Ac5c][NMeAla(cPent)][NMeD]-Piperidide; lactam N-11) | 6.30 to 7.00 | 8.34 |
| CC[C@H](C)[C@@H]1NC(=O)[C@H](CC(C)C)N(C)C(=O)C[C@@H](C(=O)N2CCCCC2)N(C)C(=O)[C@H](C2CCCCC2)N(C)C(=O)C2(CCCC2)NC(=O)[C@@H]2CC(F)(F)CN2C(=O)[C@H](CCc2ccc(C(F)(F)F)c(Cl)c2)NC(=O)CN(C)C(=O)[C@H](CC2CCCCC2)N(C)C(=O)CN(C)C(=O)CN(C)C1=O [Compound 48] ([NMeL]I[Sar][Sar][NMeCha][Sar][hPhe(3-Cl-4-CF3)][Pro(4,4-F2)][Ac5c][NMeChg][NMeD]-Piperidide; lactam N-11) | 7.30 to 7.70 | 9.01 |
| CC[C@H](C)[C@@H]1NC(=O)[C@H](CCS(C)(=O)=O)N(C)C(=O)C[C@@H](C(=O)N2CCCCC2)N(C)C(=O)[C@H](C2CCCCC2)N(C)C(=O)C2(CCCC2)NC(=O)[C@@H]2CCCN2C(=O)[C@H](CCc2ccc(C(F)(F)F)c(Cl)c2)NC(=O)CN(C)C(=O)[C@H](CC2CCCCC2)N(C)C(=O)CN(C)C(=O)CN(C)C1=O [Compound 52] ([NMeMet(O2)]I[Sar][Sar][NMeCha][Sar][hPhe(3-Cl-4-CF3)]P[Ac5c][NMeChg][NMeD]-Piperidide; lactam N-11) | 6.30 to 7.00 | 9.18 |
| CC[C@H](C)[C@@H]1NC(=O)[C@H](CC(C)C)N(C)C(=O)C[C@@H](C(=O)N2CCCCC2)N(C)C(=O)[C@H](CC(C)C)N(C)C(=O)C2(CCCC2)NC(=O)[C@@H]2C[C@@H](OCc3ccc(OC(F)F)cc3)CN2C(=O)[C@H](CCc2ccc(C(F)(F)F)c(F)c2)NC(=O)CN(C)C(=O)[C@H](CC2CCCCC2)N(C)C(=O)CN(C)C(=O)CN(C)C1=O [Compound 2128] ([NMeL]I[Sar][Sar][NMeCha][Sar][hPhe(3-F,4-CF3)][Hyp](X45)[Ac5c][NMeL][NMeD]-Piperidide; lactam N-11) | < 6.30 |  |
| CC[C@H](C)[C@@H]1NC(=O)[C@H](CC(C)C)N(C)C(=O)C[C@@H](C(=O)N2CCCCC2)N(C)C(=O)[C@H](CC(C)C)N(C)C(=O)C2(CCCC2)NC(=O)[C@@H]2C[C@H](OCc3ccc(Cl)cc3)CN2C(=O)[C@H](CCc2ccc(C(F)(F)F)c(F)c2)NC(=O)CN(C)C(=O)[C@H](CC2CCCCC2)N(C)C(=O)CN(C)C(=O)CN(C)C1=O [Compound 2129] ([NMeL]I[Sar][Sar][NMeCha][Sar][hPhe(3-F,4-CF3)][cisHyp](Benzyl(4-Cl))[Ac5c][NMeL][NMeD]-Piperidide; lactam N-11) | < 6.30 |  |
| CC[C@H](C)[C@@H]1NC(=O)[C@H](CC(C)C)N(C)C(=O)C[C@@H](C(=O)N2CCCCC2)N(C)C(=O)[C@H](CC(C)C)N(C)C(=O)C2(CCCC2)NC(=O)[C@@H]2C[C@@H](OCc3ccc(C)cc3)CN2C(=O)[C@H](CCc2ccc(C(F)(F)F)c(F)c2)NC(=O)CN(C)C(=O)[C@H](CC2CCCCC2)N(C)C(=O)CN(C)C(=O)CN(C)C1=O [Compound 2130] ([NMeL]I[Sar][Sar][NMeCha][Sar][hPhe(3-F,4-CF3)][Hyp](Meb)[Ac5c][NMeL][NMeD]-Piperidide; lactam N-11) | < 6.30 |  |
| CC[C@H](C)[C@@H]1NC(=O)[C@H](CC(C)C)N(C)C(=O)C[C@@H](C(=O)N2CCCCC2)N(C)C(=O)[C@H](CC(C)C)N(C)C(=O)C2(CCCC2)NC(=O)[C@@H]2C[C@@H](OCc3cccc(OC)c3)CN2C(=O)[C@H](CCc2ccc(C(F)(F)F)c(F)c2)NC(=O)CN(C)C(=O)[C@H](CC2CCCCC2)N(C)C(=O)CN(C)C(=O)CN(C)C1=O [Compound 2131] ([NMeL]I[Sar][Sar][NMeCha][Sar][hPhe(3-F,4-CF3)][Hyp](X30)[Ac5c][NMeL][NMeD]-Piperidide; lactam N-11) | 6.30 to 7.00 |  |

Reference: US12371454B2, “Cyclic peptide compound having Kras inhibitory action” (priority 2019, dated 2025)
